The test system of this assay is Mycosphaerella graminicola; Anamorph: Septoria tritici; Bayer Code SEPTTR. As to the kind of experiment: Leaf blotch of wheat, foliar fungicide treatment, one day protectant (1DP) or three day curative (3DC). The class given is in vivo, Septoria tritici on wheat plants (variety Yuma). The settings on record: Zymoseptoria tritici, rating of percent disease control.
[1] abbreviates: 24 h, one day protectant, read-out: SETTTR 1DP 25 ppm.
[2] abbreviates: 24 h, one day protectant, read-out: SEPTTR 1DP 100 ppm.
The mark [3] stands for this setting: 72 h, three day curative, read-out: SEPTTR 3DC 25 ppm.
Where [4] appears, read: 72 h, three day curative, read-out: SEPTTR 3DC 100 ppm.

Like-named read-outs stand apart in the source and are kept apart here.

Regarding `CC[Si](CC)(CC)Nc1nc(Oc2ccc(OC)cc2)ncc1F` [Compound 605], the pest or weed control at 25 ppm is 51 to 75% under setting [1] and 0 to 25% under setting [3]. Also, the pest or weed control at 100 ppm under setting [2] lay within 76 to 100% and the pest or weed control at 100 ppm under setting [4] was in the range of 76 to 100%.
Take `CC(Oc1ncc(F)c(N)n1)c1ccc(Cl)c(Cl)c1Cl` (stereo not drawn) [Compound 607]: the pest or weed control at 25 ppm reads like this: under setting [1], 0 to 25%; under setting [3], 0 to 25%. Moreover, the pest or weed control at 100 ppm runs as follows: under setting [2], 0 to 25%; under setting [4], 26 to 50%.
For `COc1cccc(COc2ncc(F)c(N(C)N)n2)c1` [Compound 608], the pest or weed control at 25 ppm under setting [1] is 51 to 75% and the pest or weed control at 25 ppm under setting [3] fell in the range of 51 to 75%. In addition, the pest or weed control at 100 ppm lay in the range of 76 to 100% under setting [2] and 76 to 100% under setting [4].
For the compound `COc1cccc(COc2ncc(F)c(N)n2)c1OC` [Compound 609], the pest or weed control at 25 ppm under setting [1] is 76 to 100% and the pest or weed control at 25 ppm under setting [3] lay within 76 to 100%. Further, the pest or weed control at 100 ppm under setting [2] fell in the range of 76 to 100% and the pest or weed control at 100 ppm under setting [4] was 76 to 100%.
`Cc1ccc(OC(=O)Oc2ncc(F)c(/N=C/N(C)C)n2)cc1` [Compound 610]: the pest or weed control at 25 ppm is 76 to 100% under setting [1] and 26 to 50% under setting [3]. In addition, the pest or weed control at 100 ppm reads like this: under setting [2], 76 to 100%; under setting [4], 51 to 75%.
As for `Nc1nc(OS(=O)(=O)c2ccc(Cl)cc2)ncc1F` [Compound 611], the pest or weed control at 25 ppm is, setting by setting: under setting [1], 76 to 100%; under setting [3], 76 to 100%. The pest or weed control at 100 ppm by setting is: under setting [2], 76 to 100%; under setting [4], 76 to 100%.
For the compound `N#Cc1cccc(COc2ncc(F)c(NSc3ccccc3[N+](=O)[O-])n2)c1` [Compound 612], the pest or weed control at 25 ppm under setting [1] lay in the range of 76 to 100% and the pest or weed control at 25 ppm under setting [3] fell in the range of 76 to 100%. Also, the pest or weed control at 100 ppm runs as follows: under setting [2], 76 to 100%; under setting [4], 76 to 100%.
On to `Cc1ccc(COc2ncc(F)c(NC(=O)OCc3ccccc3)n2)cc1` [Compound 613], for which the pest or weed control at 25 ppm by setting is: under setting [1], 76 to 100%; under setting [3], 76 to 100%. The pest or weed control at 100 ppm reads like this: under setting [2], 76 to 100%; under setting [4], 76 to 100%.
For `CC(C)OCNc1nc(OCc2ccc(F)cc2)ncc1F` [Compound 614], the pest or weed control at 25 ppm was 76 to 100% under setting [1] and 76 to 100% under setting [3]. Also, the pest or weed control at 100 ppm lay within 76 to 100% under setting [2] and 76 to 100% under setting [4].
For the compound `CC(=O)Nc1nc(O/N=C(\C)c2ccccc2)ncc1F` [Compound 616], the pest or weed control at 25 ppm by setting is: under setting [1], 76 to 100%; under setting [3], 76 to 100%. Further, the pest or weed control at 100 ppm reads like this: under setting [2], 76 to 100%; under setting [4], 76 to 100%.
As to `Cc1ccc(C(C)C)cc1C(C)Oc1ncc(F)c(N)n1` (stereo not drawn) [Compound 617], the pest or weed control at 25 ppm runs as follows: under setting [1], 76 to 100%; under setting [3], 76 to 100%. Also, the pest or weed control at 100 ppm was 76 to 100% under setting [2] and 76 to 100% under setting [4].
With `COc1cc(COc2ncc(F)c(N)n2)cc(OC)c1` [Compound 623], the pest or weed control at 25 ppm by setting is: under setting [1], 76 to 100%; under setting [3], 51 to 75%. In addition, the pest or weed control at 100 ppm is, setting by setting: under setting [2], 76 to 100%; under setting [4], 76 to 100%.
For the compound `CC(=O)Nc1nc(OCCc2ccc(Cl)cc2)ncc1F` [Compound 624], the pest or weed control at 25 ppm is 51 to 75% under setting [1] and 51 to 75% under setting [3]. Besides, the pest or weed control at 100 ppm fell in the range of 76 to 100% under setting [2] and 76 to 100% under setting [4].
`CSCCOc1ncc(F)c(N)n1` [Compound 625]: the pest or weed control at 25 ppm is, setting by setting: under setting [1], 0 to 25%; under setting [3], 0 to 25%. Moreover, the pest or weed control at 100 ppm reads like this: under setting [2], 26 to 50%; under setting [4], 26 to 50%.
In the case of `Nc1nc(OCc2nccs2)ncc1F` [Compound 628], the pest or weed control at 25 ppm reads like this: under setting [1], 26 to 50%; under setting [3], 51 to 75%. Moreover, the pest or weed control at 100 ppm reads like this: under setting [2], 76 to 100%; under setting [4], 76 to 100%.
As for `Nc1nc(OCc2ccc(SC(F)(F)F)cc2)ncc1F` [Compound 632], the pest or weed control at 25 ppm reads like this: under setting [1], 76 to 100%; under setting [3], 76 to 100%. The pest or weed control at 100 ppm lay in the range of 76 to 100% under setting [2] and 76 to 100% under setting [4].
In the case of `CCOC(=O)Nc1nc(OCc2cccc(F)c2)ncc1F` [Compound 633], the pest or weed control at 25 ppm runs as follows: under setting [1], 76 to 100%; under setting [3], 76 to 100%. Further, the pest or weed control at 100 ppm under setting [2] lay within 76 to 100% and the pest or weed control at 100 ppm under setting [4] lay in the range of 76 to 100%.
In the case of `CN(C)/C=N/c1nc(OC(=O)OCC(Cl)(Cl)Cl)ncc1F` [Compound 634], the pest or weed control at 25 ppm by setting is: under setting [1], 76 to 100%; under setting [3], 76 to 100%. The pest or weed control at 100 ppm under setting [2] was 76 to 100% and the pest or weed control at 100 ppm under setting [4] lay within 76 to 100%.
In the case of `COc1ccc(C(=O)Oc2ncc(F)c(/N=C/N(C)C)n2)cc1` [Compound 636], the pest or weed control at 25 ppm is 76 to 100% under setting [1] and 76 to 100% under setting [3]. For the same compound, the pest or weed control at 100 ppm runs as follows: under setting [2], 76 to 100%; under setting [4], 76 to 100%.
Take `Nc1nc(OCc2ccc(CO)cc2)ncc1F` [Compound 637]: the pest or weed control at 25 ppm under setting [1] lay in the range of 76 to 100% and the pest or weed control at 25 ppm under setting [3] lay in the range of 76 to 100%. Besides, the pest or weed control at 100 ppm was in the range of 76 to 100% under setting [2] and 76 to 100% under setting [4].
`COc1cccc(COc2ncc(F)c(NCOCc3ccccc3)n2)c1` [Compound 638]: the pest or weed control at 25 ppm by setting is: under setting [1], 51 to 75%; under setting [3], 0 to 25%. The pest or weed control at 100 ppm lay within 76 to 100% under setting [2] and 51 to 75% under setting [4].
Turning to `COc1cccc(COc2ncc(F)c(NC(=S)Nc3ccccc3F)n2)c1` [Compound 639], the pest or weed control at 25 ppm by setting is: under setting [1], 76 to 100%; under setting [3], 51 to 75%. The pest or weed control at 100 ppm runs as follows: under setting [2], 76 to 100%; under setting [4], 76 to 100%.
In the case of `N#C/C(=N\Oc1ncc(F)c(N)n1)c1ccccc1` [Compound 640], the pest or weed control at 25 ppm is, setting by setting: under setting [1], 76 to 100%; under setting [3], 76 to 100%. In addition, the pest or weed control at 100 ppm under setting [2] is 76 to 100% and the pest or weed control at 100 ppm under setting [4] fell in the range of 76 to 100%.
For the compound `Cc1ccccc1C(C)Oc1ncc(F)c(/N=C/N(C)C)n1` (stereo not drawn) [Compound 643], the pest or weed control at 25 ppm was in the range of 76 to 100% under setting [1] and 76 to 100% under setting [3]. Moreover, the pest or weed control at 100 ppm under setting [2] lay in the range of 76 to 100% and the pest or weed control at 100 ppm under setting [4] fell in the range of 76 to 100%.
In the case of `Nc1nc(OCc2ccc(Cl)nc2)ncc1F` [Compound 644], the pest or weed control at 25 ppm under setting [1] lay in the range of 76 to 100% and the pest or weed control at 25 ppm under setting [3] was in the range of 76 to 100%. For the same compound, the pest or weed control at 100 ppm lay within 76 to 100% under setting [2] and 76 to 100% under setting [4].
In the case of `COc1ccc(CCOc2ncc(F)c(N)n2)cc1` [Compound 645], the pest or weed control at 25 ppm runs as follows: under setting [1], 26 to 50%; under setting [3], 0 to 25%. Moreover, the pest or weed control at 100 ppm under setting [2] lay in the range of 76 to 100% and the pest or weed control at 100 ppm under setting [4] lay within 51 to 75%.
Taken in the same sequence, the figures for `O=CNc1nc(OS(=O)(=O)c2ccccc2)ncc1F` [Compound 646] were 51 to 75%, 76 to 100%, 76 to 100% and 76 to 100%.
Taken in the same sequence, the figures for `C=CCOC(=O)Oc1ncc(F)c(/N=C/N(C)C)n1` [Compound 647] were 76 to 100%, 76 to 100%, 76 to 100% and 76 to 100%.
The matching figures for `Nc1nc(OCc2ccc(OCc3ccc(F)cc3)cc2)ncc1F` [Compound 648]: 76 to 100%, 76 to 100%, 76 to 100% and 76 to 100%.
On to `CCCCOc1cc(COc2ncc(F)c(N)n2)ccc1OC` [Compound 650], for which the pest or weed control at 25 ppm lay in the range of 76 to 100% under setting [1] and 76 to 100% under setting [3]. Further, the pest or weed control at 100 ppm fell in the range of 76 to 100% under setting [2] and 76 to 100% under setting [4].
On to `COc1cccc(COc2ncc(F)c(NOC3CCCCO3)n2)c1` (stereo not drawn) [Compound 652], for which the pest or weed control at 25 ppm reads like this: under setting [1], 0 to 25%; under setting [3], 0 to 25%. Also, the pest or weed control at 100 ppm under setting [2] was 51 to 75% and the pest or weed control at 100 ppm under setting [4] was 76 to 100%.
Turning to `C=CCCOc1ncc(F)c(N)n1` [Compound 653], the pest or weed control at 25 ppm is, setting by setting: under setting [1], 0 to 25%; under setting [3], 26 to 50%. Besides, the pest or weed control at 100 ppm was in the range of 0 to 25% under setting [2] and 76 to 100% under setting [4].
As to `CCOCCOc1cccc(COc2ncc(F)c(NSc3ccccc3[N+](=O)[O-])n2)c1` [Compound 655], the pest or weed control at 25 ppm lay in the range of 51 to 75% under setting [1] and 51 to 75% under setting [3]. In addition, the pest or weed control at 100 ppm runs as follows: under setting [2], 76 to 100%; under setting [4], 26 to 50%.
Consider `CC[Si](CC)(CC)Nc1nc(OCc2ccccc2)ncc1F` [Compound 656], for which the pest or weed control at 25 ppm lay within 76 to 100% under setting [1] and 76 to 100% under setting [3]. For the same compound, the pest or weed control at 100 ppm by setting is: under setting [2], 76 to 100%; under setting [4], 76 to 100%.
For `CCCCCCOc1ncc(F)c(N[Si](CC)(CC)CC)n1` [Compound 658], the pest or weed control at 25 ppm by setting is: under setting [1], 0 to 25%; under setting [3], 0 to 25%. The pest or weed control at 100 ppm under setting [2] is 51 to 75% and the pest or weed control at 100 ppm under setting [4] was 51 to 75%.
Consider `COc1ccc(S(=O)(=O)Oc2ncc(F)c(N)n2)cc1` [Compound 660], for which the pest or weed control at 25 ppm lay in the range of 76 to 100% under setting [1] and 26 to 50% under setting [3]. In addition, the pest or weed control at 100 ppm runs as follows: under setting [2], 76 to 100%; under setting [4], 0 to 25%.

For the origin of these results see US9204653B2, “5-fluoro pyrimidine derivatives” (DOW AGROSCIENCES LLC, priority 2008, dated 2015).
